Experiments:
[1] = test system: Human immunodeficiency virus; test: Antiviral activity against wild type HIV; type: functional, organism-based; details: Human immunodeficiency virus 1
[2] = test system: Human immunodeficiency virus; test: Antiviral activity against HIV with reverse transcriptase 6TAMs mutation in MT-2 cells assessed as fold resistance relative to wild type
[3] = test system: Human immunodeficiency virus; test: Antiviral activity against HIV with reverse transcriptase K65R mutation in MT-2 cells assessed as fold resistance relative to wild type
[4] = Cytotoxicity against human MT2 cells; type: cell-based
[5] = test system: Human immunodeficiency virus; test: Antiviral activity against HIV with reverse transcriptase M184V mutation in MT-2 cells assessed as fold resistance relative to wild type
[6] = Inhibition of wild type HIV reverse transcriptase; design: species or system Human immunodeficiency virus

| Compound | EC50 [1] | Activity [2] | Activity [3] | CC50 [4] | Activity [5] | IC50 [6] |
| --- | --- | --- | --- | --- | --- | --- |
| Cc1cn([C@H]2C=C[C@@H](OCP(=O)(O)O)O2)c(=O)[nH]c1=O | 26 µM | 12.7 | 5.2 | > 1000 µM | 1.1 | 0.39 µM |
| Cc1cn([C@H]2CC[C@@H](OCP(=O)(O)O)O2)c(=O)[nH]c1=O | > 200 µM |  |  |  |  | 5.4 µM |
| O=c1ccn([C@H]2C=C[C@@H](OCP(=O)(O)OP(=O)(O)OP(=O)(O)O)O2)c(=O)[nH]1 |  |  |  |  |  | 0.55 µM |
| Nc1ncnc2c1ncn2[C@H]1C=C[C@@H](OCP(=O)(O)OP(=O)(O)OP(=O)(O)O)O1 |  |  |  |  |  | 0.14 µM |
| O=c1[nH]c(=O)n([C@H]2C=C[C@@H](OCP(=O)(O)O)O2)cc1F | > 200 µM |  |  |  |  |  |
| O=c1[nH]c(=O)n([C@H]2C=C[C@@H](OCP(=O)(O)O)O2)cc1Cl | 28.5 µM | >10 | 6.7 | 413 µM | 0.8 |  |
| Nc1ccn([C@H]2C=C[C@@H](OCP(=O)(O)O)O2)c(=O)n1 | > 200 µM |  |  |  |  |  |
| Nc1ncnc2c1ncn2[C@H]1CO[C@@H](OCP(=O)(O)O)C1 | 9.5 µM | 3.2 | 2.2 | 863 µM | 11 | 0.32 µM |
| O=c1ccn([C@H]2CC[C@@H](OCP(=O)(O)O)O2)c(=O)[nH]1 | > 200 µM |  |  |  |  |  |
| Nc1ncnc2c1ncn2[C@H]1CC[C@@H](OCP(=O)(O)O)O1 | 12 µM | 3.4 | 4.9 | > 1000 µM | 1.1 | 4.1 µM |
| O=c1[nH]c(=O)n([C@H]2C=C[C@@H](OCP(=O)(O)O)O2)cc1Br | 15 µM | >10 | 7.5 | 935 µM | 1.3 |  |
| Cc1cn([C@H]2C=C[C@@H](OCP(=O)(O)OP(=O)(O)OP(=O)(O)O)O2)c(=O)[nH]c1=O |  |  |  |  |  | 0.06 µM |
| Nc1ncnc2c1ncn2[C@H]1CC[C@@H](OCP(=O)(O)OP(=O)(O)OP(=O)(O)O)O1 |  |  |  |  |  | 0.26 µM |
| Nc1ncnc2c1ncn2[C@H]1C=C[C@@H](OCP(=O)(O)O)O1 | 2.1 µM | 2.9 | 2.9 | > 1000 µM | 0.9 | 0.6 µM |
| Nc1ncnc2c1ncn2[C@H]1C=C[C@@H](OCP(=O)(O)O)C1 | 51.7 µM |  |  |  |  |  |
| O=c1ccn([C@H]2C=C[C@@H](OCP(=O)(O)O)O2)c(=O)[nH]1 | > 200 µM |  |  | > 1000 µM |  | 5.7 µM |
| Nc1nc(NC2CC2)c2ncn([C@H]3C=C[C@@H](CO)C3)c2n1 (single isomer, unassigned) [ABACAVIR] | 0.32 µM | 5.7 | 3.8 | 190 µM | 7.1 | 0.13 µM |
| C[C@H](Cn1cnc2c(N)ncnc21)OCP(=O)(O)O [TENOFOVIR ANHYDROUS] | 3.6 µM | 8.8 | 4.3 | > 1000 µM | 0.7 | 0.38 µM |

From ChEMBL document CHEMBL1142218, “Synthesis, anti-HIV activity, and resistance profiles of ribose modified nucleoside phosphonates” (Bioorg Med Chem Lett, 2007)
